Results from ChEMBL document CHEMBL3091337, “Novel piperidinylamino-diarylpyrimidine derivatives with dual structural conformations as potent HIV-1 non-nucleoside reverse transcriptase inhibitors” (Bioorg Med Chem Lett, 2013).
Counter-ions that a name gives are not always drawn.

How the values were obtained:
[1] = Cytotoxicity against human MT4 cells after 5 days by MTT assay; assay type: cell-based
[2] = Selectivity index, ratio of CC50 for human MT4 cells to EC50 for HIV1 3B; assay type: toxicity, cell-based; conditions: read-out: Ratio CC50/EC50
[3] = system: Human immunodeficiency virus 1; experiment: Antiviral activity against drug-resistant HIV1 RES056 harboring reverse transcriptase K103N/Y181C double mutant infected in human MT-4 cells assessed as protection against virus-induced cytopathicity after 5 days by MTT assay; assay type: functional, organism-based; conditions: Human immunodeficiency virus 1, RES056, MT4, 120 h
[4] = system: Human immunodeficiency virus 1; experiment: Antiviral activity against HIV1 3B infected in human MT-4 cells assessed as protection against virus-induced cytopathicity after 5 days by MTT assay; assay type: functional, organism-based; conditions: Human immunodeficiency virus 1, 3B, MT4, 120 h
[5] = Selectivity index, ratio of CC50 for human MT4 cells to EC50 for drug-resistant HIV1 RES056 harboring reverse transcriptase K103N/Y181C double mutant; assay type: toxicity, cell-based; conditions: read-out: Ratio CC50/EC50
[6] = molecular target: Human immunodeficiency virus type 1 reverse transcriptase (Human immunodeficiency virus 1, UniProt Q72547); experiment: Inhibition of recombinant HIV1 reverse transcriptase using poly rA:dT as template/primer after 1 hr by ELISA

| SMILES | CC50 at 120 h [1] | selectivity ratio [2] | EC50 [3] | EC50 [4] | selectivity ratio [5] | IC50 [6] |
| --- | --- | --- | --- | --- | --- | --- |
| Cc1cc(C)c(Nc2cc(NC3CCN(Cc4ccc(S(N)(=O)=O)cc4)CC3)nc(Nc3ccc(C#N)cc3)n2)c(C)c1 | 6.4 µM | 83 | > 6.4 µM | 0.077 µM | < 1 | – |
| Cc1cc(C)c(Oc2cc(NC3CCNCC3)nc(Nc3ccc(C#N)cc3)n2)c(C)c1 | 9.6 µM | 69 | ≥ 1.8 µM | 0.14 µM | ≤ 5 | – |
| Cc1cc(C#N)cc(C)c1Oc1cc(NC2CCNCC2)nc(Nc2ccc(C#N)cc2)n1 | 4.2 µM | 112 | 0.95 µM | 0.038 µM | 4 | – |
| Cc1cc(C)c(Oc2cc(NC3CCN(Cc4ccc(S(N)(=O)=O)cc4)CC3)nc(Nc3ccc(C#N)cc3)n2)c(C)c1 | 11 µM | 61 | > 28 µM | 0.19 µM | < 1 | – |
| Cc1cc(C)c(Oc2cc(NC3CCN(Cc4ccc(S(C)(=O)=O)cc4)CC3)nc(Nc3ccc(C#N)cc3)n2)c(C)c1 | 124 µM | 934 | ≥ 16 µM | 0.13 µM | ≤ 8 | – |
| Cc1cc(C)c(Oc2cc(NC3CCN(Cc4ccncc4)CC3)nc(Nc3ccc(C#N)cc3)n2)c(C)c1 | 11 µM | 44 | > 11 µM | 0.24 µM | < 1 | – |
| Cc1cc(C#N)cc(C)c1Oc1cc(NC2CCN(Cc3ccc(S(N)(=O)=O)cc3)CC2)nc(Nc2ccc(C#N)cc2)n1 | 12 µM | 93 | 3.9 µM | 0.13 µM | 3 | – |
| Cc1cc(C#N)cc(C)c1Oc1cc(NC2CCN(Cc3ccc(S(C)(=O)=O)cc3)CC2)nc(Nc2ccc(C#N)cc2)n1 | > 206 µM | > 3550 | > 206 µM | 0.058 µM | 1 | – |
| Cc1cc(C#N)cc(C)c1Oc1cc(NC2CCN(Cc3ccncc3)CC2)nc(Nc2ccc(C#N)cc2)n1 | 100 µM | 2140 | 4.6 µM | 0.047 µM | 22 | 33 µM |
| CC(C)Nc1cccnc1N1CCN(C(=O)c2cc3cc(NS(C)(=O)=O)ccc3[nH]2)CC1 [DELAVIRDINE MESYLATE] | > 36 µM | > 227 | > 36 µM | 0.13 µM | 1 | – |
| O=C1Nc2ccc(Cl)cc2[C@@](C#CC2CC2)(C(F)(F)F)O1 [EFAVIRENZ] | > 6.3 µM | – | – | 0.007 µM | – | – |
| Cc1ccnc2c1NC(=O)c1cccnc1N2C1CC1 [NEVIRAPINE] | > 15 µM | – | 2.5 µM | 0.17 µM | – | – |
